Assay results published in patent publication EP0702015B1, “Bicyclic oxazole and thiazole substituted ethers” (Novartis AG, priority 1994, dated 1996).

Assays:
[1] = system: rat muscle cell line (L6 myocytes); assay: L6 myocyte screen (glucose utilization); type: cell-based; settings: differentiated L6 myocytes, 20 hours treatment, DMEM with 15 mM glucose, concentration producing 50 % of maximum response versus control, read-out: EC50 in the L6 myocyte test
Experimental: This is indicated in standard tests, e.g. in vitro by the L6 myocyte screen in a rat muscle cell line:
The L6 myocyte screen determines the direct effects of 1 to 300 µM concentrations of the agents on glucose utilization in the rat muscle cell line. Rat L6 myoblasts (American Type Culture Collection) are maintained in Dulbecco's modified Eagle's medium (DMEM, Gibco) containing 5 mM glucose and 10 % calf serum supplement. The L6 myoblasts are plated in 96-well microtiter plates at a density of 3000 cells/well. Differentiated myocytes are used in experiments on the 11th or 13th day after plating. All test agents are dissolved in 1 % dimethylsulfoxide (DMSO) in serum-free testing media. The DMSO has no effect on glucose utilization. Each experiment includes the following internal controls: water, glucose standard (300 mg/dl), media blank, media control, ciglitazone standard (30 µM) and an insulin dose-response curve (0.03 - 1 µM). All compounds are tested in quadruplicate in each experiment at concentrations of 1, 3, 10, 30,100 and 300 µM. The L6 cells are treated with test compound and DMEM containing 15 mM glucose for 20 hours. Glucose utilization is assessed by measurement of glucose remaining in the media using a glucose oxidase assay (Ciba-Corning #S1004B). The EC50 is the concentration of the test agent estimated to produce 50 % of the maximum response versus control.

[2] = system: male ob/ob mice; assay: ob/ob hypoglycemia test; type: in vivo; settings: oral gavage once a day for three days, blood glucose lowering, calculated on day 3
Experimental: The antidiabetic activity is indicated in vivo e.g. in the ob/ob hypoglycemia test in male ob/ob mice, given 1 to 200 mg/kg of drug. The mice, approximately 2 to 3 months of age, weighing about 30 g, are kept in a room at a controlled ambient temperature of 22° C and a 12/12 hour light/dark cycle for at least seven days before the screen and then during testing. In the ob/ob screen, Purina rodent chow and water are available ad libitum. For each screen, mice are matched and placed in treatment groups (six mice per group) on the basis of initial blood glucose levels the day prior to screening (day 0). Animals are dosed once a day for three days with either vehicle (carboxymethylcellulose 0.5 %, with Tween-80 0.2 %) or test compound in vehicle. The animals receive 0.1 ml/10 g body weight administered orally by gavage. On day 1, blood glucose levels are sampled from the tip of the tail at 2 and 4 hours post-dose. On day 3, blood glucose levels are sampled at 2, 4 and 8 hours post-dose. Blood glucose levels are measured by the glucose oxidase method (YSI Model 27, Yellow Springs, Ohio). […] A systematic, quantitative procedure for assessing the behavioral and physiological state of the mouse, in Psychopharmacologica 12 (1968) 222-257.
Efficacy for glucose lowering is determined by comparing glucose levels of control animals to those of treated animals. […]

Compound | EC50 [1] [µM] | EC50 in the ob/ob hypoglycemia test [2]
O=C1CC[C@]2(c3ccc(Cl)c(Cl)c3)O[C@H](COc3ccc(Cl)cc3)CN12 (racemic) [Example 3, (±)-trans-2-[(4-Chlorophenoxy)methyl]-7a-(3,4-dichlorophenyl)-2,3,7,7a-tetrahydropyrrolo[2,1-b]oxazol-5(6H)-one] | ~14 | about 62 mg/kg
O=C1CC[C@]2(c3ccc(Cl)c(Cl)c3)O[C@H](COc3ccc(Cl)cc3)CN12 [Example 1, (-)-trans-2S-[(4-Chlorophenoxy)methyl]-7A-(3,4-dichlorophenyl)-2,3,7,7a-tetrahydropyrrolo[2.1-b]oxazol-5(6H)-one] | ~10 | –
